What was measured:
DIGSA [1] = test: Pre-emergence action against DIGSA, 1280 g/ha; format: in vivo, Digitaria sanguinalis; settings: visual scoring after about 3 weeks vs untreated controls, 100% = plants have died, 0% = like control plants
Source text: (§1) 1. Pre-Emergence Herbicidal Effect and Crop Plant Compatibility a) Seeds of mono- and dicotyledonous weed plants are placed in plastic pots in sandy loam soil (doubly sown with one species each of mono- or dicotyledonous weed plants per pot) and covered with soil. The compounds of the invention, formulated in the form of wettable powders (WP) or as emulsion concentrates (EC), are then applied onto the surface of the covering soil as aqueous suspension or emulsion with addition of 0.5% additive at a water application rate equivalent to 600 litres per hectare. After the treatment, the pots are placed in a greenhouse and kept under good growth conditions for the trial plants. After about 3 weeks, the effect of the preparations is scored visually in comparison with untreated controls as percentages. For example, 100% activity=the plants have died, 0% activity=like control plants. 1. Pre-Emergence Effectiveness Tables 1 to 12 below show the effects of selected compounds of the general formula (I) according to Tables 1 and 2 on various harmful plants and at an application rate corresponding to 1280 g/ha, which were obtained by the experimental procedure mentioned above.

ECHCG [2] = test: Pre-emergence action against ECHCG, 1280 g/ha; format: in vivo, Echinochloa crus-galli; settings: visual scoring after about 3 weeks vs untreated controls, 100% = plants have died, 0% = like control plants
Source text: as §1

LOLRI = test: Pre-emergence action against LOLRI, 1280 g/ha; format: in vivo, Lolium rigidum; settings: visual scoring after about 3 weeks vs untreated controls, 100% = plants have died, 0% = like control plants
Source text: as §1

POAAN [3] = test: Pre-emergence action against POAAN, 1280 g/ha; format: in vivo, Poa annua; settings: visual scoring after about 3 weeks vs untreated controls, 100% = plants have died, 0% = like control plants
Source text: as §1

SETVI = test: Pre-emergence action against SETVI, 1280 g/ha; format: in vivo, Setaria viridis; settings: visual scoring after about 3 weeks vs untreated controls, 100% = plants have died, 0% = like control plants
Source text: as §1

AMARE [4] = test: Pre-emergence action against AMARE, 1280 g/ha; format: in vivo, Amaranthus retroflexus; settings: scored visually after about 3 weeks vs untreated controls (100% = plants have died)
Source text: as §1

MATIN [5] = test: Pre-emergence action against MATIN, 1280 g/ha; format: in vivo, Tripleurospermum inodorum (Matricaria inodora); settings: scored visually after about 3 weeks vs untreated controls (100% = plants have died)
Source text: as §1

STEME [6] = test: Pre-emergence action against STEME, 1280 g/ha; format: in vivo, Stellaria media; settings: scored visually after about 3 weeks vs untreated controls (100% = plants have died)
Source text: as §1

VERPE [7] = test: Pre-emergence action against VERPE, 1280 g/ha; format: in vivo, Veronica persica; settings: scored visually after about 3 weeks vs untreated controls (100% = plants have died)
Source text: as §1

ECHCG [8] = test: Post-emergence action against ECHCG, 1.28 kg/ha; format: in vivo, Echinochloa crus-galli; settings: dosage 1280 g/ha, visual rating about 3 weeks after treatment vs untreated controls
Description: (§2) • a) Seeds of mono- and dicotyledonous weed plants are placed in plastic pots in sandy loam soil (twin sowing with one species each of mono- or dicotyledonous weed plants per pot), covered with soil and cultivated in a greenhouse under controlled growth conditions. 2 to 3 weeks after sowing, the test plants are treated at the one-leaf stage. The compounds of the invention, formulated in the form of wettable powders (WP) or as emulsion concentrates (EC), are applied to the green parts of the plants as aqueous suspension or emulsion with addition of 0.5% additive at a water application rate equivalent to 600 litres per hectare. After the test plants have been kept in the greenhouse under optimum growth conditions for about 3 weeks, the activity of the preparations is rated visually in comparison to untreated controls. For example, 100% activity=the plants have died, 0% activity=like control plants. As shown by the results, compounds of the general formula (I) of the invention, in post-emergence treatment, have very good herbicidal efficacy (90% to 100% herbicidal action) against harmful plants such as Abutilon theophrasti, Digitaria sanguinalis, Echinochloa crus-galli, Matricaria inodora, Poa annua, at an application rate of 1.28 kg of active substance per hectare.

POAAN [9] = test: Post-emergence action against POAAN, 1.28 kg/ha; format: in vivo, Poa annua; settings: dosage 1280 g/ha, visual rating about 3 weeks after treatment vs untreated controls
Description: as §2

ABUTH = test: Post-emergence action against ABUTH, 1.28 kg/ha; format: in vivo, Abutilon theophrasti; settings: dosage 1280 g/ha, visual rating about 3 weeks after treatment vs untreated controls (100% = plants died)
Description: as §2

AMARE [10] = test: Post-emergence action against AMARE, 1.28 kg/ha; format: in vivo, Amaranthus retroflexus; settings: dosage 1280 g/ha, visual rating about 3 weeks after treatment vs untreated controls (100% = plants died)
Description: as §2

MATIN [11] = test: Post-emergence action against MATIN, 1.28 kg/ha; format: in vivo, Tripleurospermum inodorum (Matricaria inodora); settings: dosage 1280 g/ha, visual rating about 3 weeks after treatment vs untreated controls (100% = plants died)
Description: as §2

VERPE [12] = test: Post-emergence action against VERPE, 1.28 kg/ha; format: in vivo, Veronica persica; settings: dosage 1280 g/ha, visual rating about 3 weeks after treatment vs untreated controls (100% = plants died)
Description: as §2

ALOMY [13] = test: Post-emergence action against ALOMY, 1.28 kg/ha; format: in vivo, Alopecurus myosuroides; settings: dosage 1280 g/ha, visual rating about 3 weeks after treatment vs untreated controls
Description: as §2

VIOTR = test: Pre-emergence action at 320 g/ha against VIOTR; format: in vivo, Viola tricolor; settings: dosage 320 g/ha
Source text: (§3) b) Seeds of monocotyledonous and dicotyledonous weed plants and crop plants are placed in plastic or organic planting pots and covered with soil. The compounds of the invention, formulated in the form of wettable powders (WP) or as emulsion concentrates (EC), are then applied onto the surface of the covering soil as aqueous suspension or emulsion with addition of 0.5% additive at a water application rate of 600 l/ha (converted). After the treatment, the pots are placed in a greenhouse and kept under good growth conditions for the trial plants. After about 3 weeks, the effect of the preparations is scored visually in comparison with untreated controls as percentages. For example, 100% activity=the plants have died, 0% activity=like control plants. Tables 13 to 26 below show the effects of selected compounds of the general formula (I) on various harmful plants and at an application rate corresponding to 320 g/ha, which were obtained by the experimental procedure mentioned above.

ALOMY [14] = test: Pre-emergence action against ALOMY, 1280 g/ha; format: in vivo, Alopecurus myosuroides; settings: visual scoring after about 3 weeks vs untreated controls, 100% = plants have died, 0% = like control plants
Source text: as §1

DIGSA [15] = test: Post-emergence action against DIGSA, 1.28 kg/ha; format: in vivo, Digitaria sanguinalis; settings: dosage 1280 g/ha, visual rating about 3 weeks after treatment vs untreated controls
Description: as §2

ALOMY [16] = test: Pre-emergence action at 320 g/ha against ALOMY; format: in vivo, Alopecurus myosuroides; settings: scored visually after about 3 weeks vs untreated controls (100% = plants have died)
Source text: as §3

AMARE [17] = test: Pre-emergence action at 320 g/ha against AMARE; format: in vivo, Amaranthus retroflexus; settings: visual scoring after about 3 weeks vs untreated controls
Source text: as §3

POLCO = test: Pre-emergence action at 320 g/ha against POLCO; format: in vivo, Fallopia convolvulus (Polygonum convolvulus); settings: visual scoring after about 3 weeks vs untreated controls
Source text: as §3

STEME [18] = test: Post-emergence action against STEME, 1.28 kg/ha; format: in vivo, Stellaria media; settings: dosage 1280 g/ha, visual rating about 3 weeks after treatment vs untreated controls (100% = plants died)
Description: as §2

SMILES | Pre-emergence action against DIGSA (DIGSA [1]) [%] | Pre-emergence action against ECHCG (ECHCG [2]) [%] | Pre-emergence action against LOLRI (LOLRI) [%] | Pre-emergence action against POAAN (POAAN [3]) [%] | Pre-emergence action against SETVI (SETVI) [%] | Pre-emergence action against AMARE (AMARE [4]) [%] | Pre-emergence action against MATIN (MATIN [5]) [%] | Pre-emergence action against STEME (STEME [6]) [%] | Pre-emergence action against VERPE (VERPE [7]) [%] | Post-emergence action against ECHCG (ECHCG [8]) [%] | Post-emergence action against POAAN (POAAN [9]) [%] | Post-emergence action against ABUTH (ABUTH) [%] | Post-emergence action against AMARE (AMARE [10]) [%] | Post-emergence action against MATIN (MATIN [11]) [%] | Post-emergence action against VERPE (VERPE [12]) [%] | Post-emergence action against ALOMY (ALOMY [13]) [%] | Pre-emergence action against ALOMY (ALOMY [14]) [%] | further results
O=C(O)COc1nn(-c2ccccc2F)c(-c2cnccn2)c1Br [Example I-003] | 90 | 90 | 90 | 100 | 90 | 90 | 90 | 100 | 90 | 90 | 100 | 90 | 100 | 90 | 90 |  |  | 
CCOC(=O)COc1nn(-c2ccccc2F)c(-c2cnccn2)c1Br [Example I-004] | 90 | 90 | 90 | 100 | 100 | 100 | 90 | 100 | 90 | 90 |  | 90 | 90 |  | 100 | 100 |  | 
COC(=O)C1CCCN(C(=O)COc2nn(-c3ccccc3F)c(-c3ccc(F)nc3)c2Br)C1 (stereo not shown) [Example X-018] |  |  |  |  |  |  |  |  |  |  |  |  |  |  |  |  |  | Pre-emergence action against VIOTR in % (VIOTR): 90%
CONC(=O)COc1nn(-c2ccccc2F)c(-c2ccc(F)cn2)c1Br [II-003] | 100 | 100 | 100 | 100 | 100 | 100 | 100 | 90 |  |  | 100 | 90 |  | 90 | 100 | 100 |  | 
CCOC(=O)COc1nn(-c2ccccc2F)c(-c2ccc(F)cn2)c1Br [II-014] | 100 | 100 | 100 | 100 | 90 | 90 | 100 | 90 | 100 |  | 90 | 90 | 90 | 90 | 90 |  | 100 | Post-emergence action against DIGSA (DIGSA [15]): 90%
CCOC(=O)COc1nn(-c2ccccc2F)c(-c2ccc([S+](C)[O-])nc2)c1Br (stereo not shown) [VII-044] |  |  |  |  |  |  |  |  |  |  |  |  |  |  |  |  |  | Pre-emergence action at 320 g/ha against ALOMY in % (ALOMY [16]): 90%; Pre-emergence action against AMARE in % (AMARE [17]): 90%; Pre-emergence action against POLCO in % (POLCO): 100%; Pre-emergence action against VIOTR in % (VIOTR): 100%
CSc1ccc(-c2c(Br)c(OCC(=O)O)nn2-c2ccccc2F)cn1 [VII-047] |  |  |  |  |  |  |  |  |  |  |  |  |  |  |  |  |  | Pre-emergence action against AMARE in % (AMARE [17]): 90%
COC(=O)COc1nn(-c2cc(F)ccc2F)c(-c2ccc(F)nc2)c1C#N [VII-063] | 100 |  | 100 | 100 | 100 | 100 | 90 | 100 | 100 |  | 100 |  | 100 | 90 | 90 | 100 | 100 | Post-emergence action against STEME (STEME [18]): 100%
O=C(COc1nn(-c2ccccc2F)c(-c2ccc(F)nc2)c1Br)OCc1ccco1 [VII-098] | 100 | 100 | 100 | 100 | 100 | 100 | 90 | 100 | 100 | 90 | 100 | 90 |  | 100 | 90 | 100 | 100 | Post-emergence action against DIGSA (DIGSA [15]): 100%
COC(=O)COc1nn(-c2ccccc2F)c(-c2ccc(F)nc2)c1SC [VII-123] | 100 |  | 90 | 100 |  | 90 | 100 | 90 | 90 | 100 | 100 | 90 | 90 | 90 | 90 | 90 |  | 
CS(=O)(=O)NC(=O)COc1nn(-c2ccccc2F)c(-c2ccnc(F)c2)c1Br [VIII-012] | 100 | 100 | 100 | 100 | 100 | 100 | 100 |  | 100 | 100 | 100 |  | 100 | 100 | 90 | 100 | 100 | Post-emergence action against DIGSA (DIGSA [15]): 100%; Post-emergence action against STEME (STEME [18]): 90%

— patent US12180187B2, “1-phenyl-5-azinylpyrazolyl-3-oxyalkyl acids and their use for controlling unwanted plant growth” (BAYER AKTIENGESELLSCHAFT, priority 2019, dated 2024)
